Assay results published in US11578079B2, “SUMO inhibitor compounds and uses thereof” (CITY OF HOPE, priority 2018, dated 2023).

Experiments:
Parameters in all cases: key: + (less active); ++ (active); +++ (most active)
SUMO = molecular target: T1, SUMO (Homo sapiens, UniProt Q9UBT2); test: SUMO activity (Table I, biological activities); format: biochemical
T1 sequence (Q9UBT2 1-640): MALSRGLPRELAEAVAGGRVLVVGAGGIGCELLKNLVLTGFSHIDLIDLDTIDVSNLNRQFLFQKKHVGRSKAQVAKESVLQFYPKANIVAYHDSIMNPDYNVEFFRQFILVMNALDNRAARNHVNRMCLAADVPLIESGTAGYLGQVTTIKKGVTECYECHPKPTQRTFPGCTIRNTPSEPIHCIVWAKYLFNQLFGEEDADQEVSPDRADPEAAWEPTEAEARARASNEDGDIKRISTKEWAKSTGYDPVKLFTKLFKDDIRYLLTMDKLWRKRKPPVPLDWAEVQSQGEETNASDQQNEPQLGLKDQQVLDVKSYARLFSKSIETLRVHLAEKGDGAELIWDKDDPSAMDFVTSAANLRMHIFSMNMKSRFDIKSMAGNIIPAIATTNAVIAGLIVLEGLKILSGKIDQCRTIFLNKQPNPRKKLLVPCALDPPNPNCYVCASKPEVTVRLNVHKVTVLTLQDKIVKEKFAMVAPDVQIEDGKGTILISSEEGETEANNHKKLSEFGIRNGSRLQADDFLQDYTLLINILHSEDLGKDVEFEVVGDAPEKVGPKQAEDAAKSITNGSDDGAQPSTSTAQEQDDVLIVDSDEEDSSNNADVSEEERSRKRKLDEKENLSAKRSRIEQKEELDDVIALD
T1 sequence (Q9UBE0 1-346 partner): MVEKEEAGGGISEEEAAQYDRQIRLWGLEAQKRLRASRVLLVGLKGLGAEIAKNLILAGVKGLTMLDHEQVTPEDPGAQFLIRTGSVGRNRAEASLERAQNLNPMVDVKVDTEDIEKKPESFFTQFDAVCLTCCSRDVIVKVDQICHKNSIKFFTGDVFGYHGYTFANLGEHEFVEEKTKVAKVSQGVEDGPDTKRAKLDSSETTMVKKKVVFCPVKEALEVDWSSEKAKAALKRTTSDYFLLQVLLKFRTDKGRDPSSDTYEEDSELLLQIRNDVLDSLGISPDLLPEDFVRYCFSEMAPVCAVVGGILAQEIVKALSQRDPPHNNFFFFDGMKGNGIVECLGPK

c-Myc = c-Myc activity (Table I, biological activities)
Nedd8 = molecular target: T2, Nedd8 (Homo sapiens, UniProt Q8TBC4); test: Nedd8 activity (Table I, biological activities); format: biochemical
T2 sequence (Q8TBC4 1-463): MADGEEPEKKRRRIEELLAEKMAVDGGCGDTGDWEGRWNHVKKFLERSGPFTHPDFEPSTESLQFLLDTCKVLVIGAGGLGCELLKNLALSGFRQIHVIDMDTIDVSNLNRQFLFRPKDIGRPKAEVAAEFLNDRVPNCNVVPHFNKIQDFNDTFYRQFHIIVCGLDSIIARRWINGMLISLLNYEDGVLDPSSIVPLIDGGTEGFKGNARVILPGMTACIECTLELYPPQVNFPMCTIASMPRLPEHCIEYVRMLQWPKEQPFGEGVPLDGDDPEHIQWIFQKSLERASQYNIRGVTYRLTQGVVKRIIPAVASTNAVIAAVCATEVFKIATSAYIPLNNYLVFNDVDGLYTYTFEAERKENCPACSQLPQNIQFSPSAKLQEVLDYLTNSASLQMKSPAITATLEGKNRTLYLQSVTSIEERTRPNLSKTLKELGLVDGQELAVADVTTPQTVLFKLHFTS
T2 sequence (Q13564 1-534 partner): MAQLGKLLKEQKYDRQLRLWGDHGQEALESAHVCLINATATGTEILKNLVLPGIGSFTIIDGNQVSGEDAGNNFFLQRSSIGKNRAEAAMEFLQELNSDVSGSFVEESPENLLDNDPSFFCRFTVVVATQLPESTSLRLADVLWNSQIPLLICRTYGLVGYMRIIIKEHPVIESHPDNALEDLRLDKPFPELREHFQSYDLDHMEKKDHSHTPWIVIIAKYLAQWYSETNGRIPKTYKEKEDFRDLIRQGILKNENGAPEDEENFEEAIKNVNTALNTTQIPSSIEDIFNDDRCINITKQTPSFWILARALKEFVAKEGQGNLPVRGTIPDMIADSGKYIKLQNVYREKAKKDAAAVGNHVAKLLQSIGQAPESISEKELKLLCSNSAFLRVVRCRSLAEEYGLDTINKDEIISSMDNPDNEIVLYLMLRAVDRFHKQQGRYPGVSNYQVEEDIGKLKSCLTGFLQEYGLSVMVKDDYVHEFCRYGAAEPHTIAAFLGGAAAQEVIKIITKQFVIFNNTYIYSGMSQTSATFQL

CC12C=CC(C(Cc3ccccc3)Nc3ccccc3)(C=C1C(=O)c1ccc(F)cc1)O2 (stereo not drawn) [Compound 526]
SUMO (SUMO): +
c-Myc (c-Myc): +

CC(=O)C1=CC2(C(Cc3ccccc3)Nc3ccccc3)C=CC1(C)O2 (stereo not drawn) [Compound 527]
SUMO (SUMO): +
c-Myc (c-Myc): +

COC(=O)C1=C(C(=O)Nc2ccccc2)C2C=CC1(C(Cc1ccccc1)Nc1cccc(CO)c1)O2 (stereo not drawn) [Compound 528]
SUMO (SUMO): ++
c-Myc (c-Myc): ++

Cc1ccc(S(=O)(=O)C2=CC3(C)C=CC2(C(Cc2ccccc2)Nc2ccccc2)O3)cc1 (stereo not drawn) [Compound 531]
SUMO (SUMO): +
Nedd8 (Nedd8): ++

COC(=O)C1=C(C(=O)NCc2ccccn2)C2OC1(C(Cc1ccccc1)Oc1ccccc1)C1OC21 (stereo not drawn) [Compound 547]
SUMO (SUMO): ++
c-Myc (c-Myc): ++

CCOC(=O)C1=C(C(=O)Nc2cccnc2)C2C=CC1(C(Nc1ccccc1)c1ccc(CN3CCOCC3)cc1)O2 (stereo not drawn) [Compound 550]
SUMO (SUMO): +++
c-Myc (c-Myc): +

CCOC(=O)C1=C(C(N)=O)C2C=CC1(C(Nc1ccccc1)c1ccc(CN3CCOCC3)cc1)O2 (stereo not drawn) [Compound 552]
SUMO (SUMO): ++
c-Myc (c-Myc): +

COC(=O)C1=C(C(=O)OC)C2(C(Cc3ccccc3)N(C(=O)C(F)(F)F)c3ccccc3)C=CC1O2 (stereo not drawn) [Compound 554]
SUMO (SUMO): ++
c-Myc (c-Myc): ++

COC(=O)C1=C(C(=O)OC)C2(C(Cc3ccccc3)N(C(=O)C(F)(F)F)c3ccccc3)OC1C1=C2O1 (stereo not drawn) [Compound 555]
SUMO (SUMO): +
c-Myc (c-Myc): +

CCOC(=O)C1=C(C(=O)Nc2ccc(C)c(F)c2)C2C=CC1(C(Nc1ccccc1)c1ccc(CN3CCOCC3)cc1)O2 (stereo not drawn) [Compound 558]
SUMO (SUMO): +
c-Myc (c-Myc): +

CCOC(=O)C1=C(C(=O)NCCN2CCCC2)C2C=CC1(C(Cc1ccccc1)Nc1ccccc1)O2 (stereo not drawn) [Compound 564]
SUMO (SUMO): ++
c-Myc (c-Myc): +

CCOC(=O)C1=C(C(=O)Nc2ccc(CN(C)C)cc2)C2C=CC1(C(Nc1ccccc1)c1ccc(CN3CCOCC3)cc1)O2 (stereo not drawn) [Compound 565]
SUMO (SUMO): +
c-Myc (c-Myc): +

CCOC(=O)C1=C(C(=O)Nc2ccc(OC)cc2)C2C=CC1(C(Nc1ccccc1)c1ccc(CN3CCOCC3)cc1)O2 (stereo not drawn) [Compound 567]
SUMO (SUMO): ++
c-Myc (c-Myc): +

CCOC(=O)C1=C(C(=O)Nc2ccc(Oc3ccccc3)cc2)C2C=CC1(C(Nc1ccccc1)c1ccc(CN3CCOCC3)cc1)O2 (stereo not drawn) [Compound 569]
SUMO (SUMO): +
c-Myc (c-Myc): +

CCOC(=O)C1=C(C(=O)NCCN(C)C)C2C=CC1(C(Nc1ccccc1)c1ccc(CN3CCOCC3)cc1)O2 (stereo not drawn) [Compound 571]
SUMO (SUMO): ++
c-Myc (c-Myc): +

CCOC(=O)C1=C(C(=O)Nc2ccc(C)nc2)C2C=CC1(C(Nc1ccccc1)c1ccc(CN3CCOCC3)cc1)O2 (stereo not drawn) [Compound 573]
SUMO (SUMO): +
c-Myc (c-Myc): +

C#Cc1ccc(NC(=O)C2=C(C(=O)OCC)C3(C(Nc4ccccc4)c4ccc(CN5CCOCC5)cc4)C=CC2O3)cc1 (stereo not drawn) [Compound 577]
SUMO (SUMO): ++
c-Myc (c-Myc): ++

CCOC(=O)C1=C(C(=O)Nc2ccc(C)c(F)c2)C2(C)C=CC1(C(Nc1ccccc1)c1ccc(CN3CCOCC3)cc1)O2 (stereo not drawn) [Compound 579]
SUMO (SUMO): +
c-Myc (c-Myc): +

CCOC(=O)C1=C(C(=O)Nc2ccc(OC)cc2)C2(C)C=CC1(C(Nc1ccccc1)c1ccc(CN3CCOCC3)cc1)O2 (stereo not drawn) [Compound 581]
SUMO (SUMO): +
c-Myc (c-Myc): +

COC(=O)C1=C(C(=O)OC)C2(C(Cc3ccccc3)Nc3ccccc3)C=CC1(C)O2 (stereo not drawn) [Compound 586]
SUMO (SUMO): ++
c-Myc (c-Myc): +

CCOC(=O)C1=C(C(=O)N(C)C)C2C=CC1(C(Nc1ccccc1)c1ccc(CN3CCOCC3)cc1)O2 (stereo not drawn) [Compound 590]
SUMO (SUMO): +
c-Myc (c-Myc): +

CCOC(=O)C1=C(C(=O)Nc2ccccc2C)C2C=CC1(C(Nc1ccccc1)c1ccc(CN3CCOCC3)cc1)O2 (stereo not drawn) [Compound 591]
SUMO (SUMO): ++
c-Myc (c-Myc): ++

CCOC(=O)C1=C(C(=O)N(C)C)C2C=CC1(C(Cc1ccccc1)Nc1ccccc1)O2 (stereo not drawn) [Compound 593]
SUMO (SUMO): +
c-Myc (c-Myc): +

COC(=O)C1=C(C(=O)NCCN(C)C)C2(C)C=CC1(C(Cc1ccccc1)Nc1ccccc1)O2 (stereo not drawn) [Compound 594]
SUMO (SUMO): ++
c-Myc (c-Myc): +

CCOC(=O)C1=C(C(=O)Nc2ccccc2F)C2C=CC1(C(Nc1ccccc1)c1ccc(CN3CCOCC3)cc1)O2 (stereo not drawn) [Compound 595]
SUMO (SUMO): ++
c-Myc (c-Myc): +

CCOC(=O)C1=C(C(=O)Nc2ccccc2OC)C2C=CC1(C(Nc1ccccc1)c1ccc(CN3CCOCC3)cc1)O2 (stereo not drawn) [Compound 597]
SUMO (SUMO): +
c-Myc (c-Myc): ++

CCOC(=O)C1=C(C(=O)Nc2ccc(OC(F)(F)F)cc2)C2C=CC1(C(Nc1ccccc1)c1ccc(CN3CCOCC3)cc1)O2 (stereo not drawn) [Compound 599]
SUMO (SUMO): ++
c-Myc (c-Myc): ++

CCOC(=O)C1=C(C(=O)Nc2ccc(F)cc2)C2C=CC1(C(Nc1ccccc1)c1ccc(CN3CCOCC3)cc1)O2 (stereo not drawn) [Compound 601]
SUMO (SUMO): ++
c-Myc (c-Myc): +

CCOC(=O)C1=C(C(=O)Nc2ccccc2)C2C=CC1(C(Nc1ccccc1)c1ccc(CN3CCOCC3)cc1)O2 (stereo not drawn) [Compound 604]
SUMO (SUMO): ++
c-Myc (c-Myc): +

CCOC(=O)C1=C(C(=O)Nc2ccc(Cl)cc2)C2C=CC1(C(Nc1ccccc1)c1ccc(CN3CCOCC3)cc1)O2 (stereo not drawn) [Compound 606]
SUMO (SUMO): ++
c-Myc (c-Myc): +

CCOC(=O)C1=C(C(=O)Nc2ccccc2Oc2ccccc2)C2C=CC1(C(Nc1ccccc1)c1ccc(CN3CCOCC3)cc1)O2 (stereo not drawn) [Compound 608]
SUMO (SUMO): +
c-Myc (c-Myc): +

CCOC(=O)C1=C(C(=O)Nc2ccc(OC)cc2OC)C2C=CC1(C(Nc1ccccc1)c1ccc(CN3CCOCC3)cc1)O2 (stereo not drawn) [Compound 610]
SUMO (SUMO): +
c-Myc (c-Myc): +

CCOC(=O)C1=C(C(=O)Nc2ccc(C)c(F)c2)C2C=CC1(C(Nc1ccc(C#N)cc1)c1ccc(CN3CCOCC3)cc1)O2 (stereo not drawn) [Compound 612]
SUMO (SUMO): +
c-Myc (c-Myc): +

CCOC(=O)C1=C(C(=O)Nc2ccc(C)c(F)c2)C2C=CC1(C(Nc1ccc(C)cc1)c1ccc(CN3CCOCC3)cc1)O2 (stereo not drawn) [Compound 613]
SUMO (SUMO): +
c-Myc (c-Myc): +

CCOC(=O)C1=C(C(=O)Nc2ccc(C)c(F)c2)C2C=CC1(C(Nc1cccc(OC)c1)c1ccc(CN3CCOCC3)cc1)O2 (stereo not drawn) [Compound 615]
SUMO (SUMO): +
c-Myc (c-Myc): +

CCOC(=O)C1=C(C(=O)Nc2c(C)cccc2CC)C2C=CC1(C(Nc1ccccc1)c1ccc(CN3CCOCC3)cc1)O2 (stereo not drawn) [Compound 617]
SUMO (SUMO): ++
c-Myc (c-Myc): ++

CCOC(=O)C1=C(C(=O)Nc2ccc(C)c(F)c2)C2C=CC1(C(Nc1ccc(OC)cc1)c1ccc(CN3CCOCC3)cc1)O2 (stereo not drawn) [Compound 621]
SUMO (SUMO): +
c-Myc (c-Myc): +

CCOC(=O)C1=C(C(=O)Nc2ccc(C)c(F)c2)C2C=CC1(C(Nc1cccc(C)c1)c1ccc(CN3CCOCC3)cc1)O2 (stereo not drawn) [Compound 623]
SUMO (SUMO): ++
c-Myc (c-Myc): +

CCOC(=O)C1=CC2OC1(C(Nc1ccccc1)c1ccccc1)c1ccccc12 (stereo not drawn) [Compound 625]
SUMO (SUMO): +
c-Myc (c-Myc): +
